Assay [1] deals with T1, GXMT1 (Arabidopsis thaliana, UniProt Q9LQ32).
T1 construct: made in house; host or cells: E. coli BL21-CodonPlus (DE3)-RIPL, pGEX-5X1 vector
T1 sequence (Q9LQ32 44-297): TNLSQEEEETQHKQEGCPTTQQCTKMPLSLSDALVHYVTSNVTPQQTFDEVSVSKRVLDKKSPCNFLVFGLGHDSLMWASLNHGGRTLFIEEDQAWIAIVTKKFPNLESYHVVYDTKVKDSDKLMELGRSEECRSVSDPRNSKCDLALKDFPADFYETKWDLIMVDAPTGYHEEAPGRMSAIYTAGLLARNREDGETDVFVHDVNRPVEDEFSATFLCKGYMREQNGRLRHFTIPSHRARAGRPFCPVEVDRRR
Put plainly: GXMT1 4-O-methyltransferase activity of metal-depleted enzyme, SAH formation by LC-ESI-MS. To be noted: for effect on GXMT1 enzyme activity: metal salts or EDTA at 1 mM, metal-depleted GXMT1. It is filed as biochemical.
Method: The transfer of a methyl group from SAM to GlcA results in the formation of S-adenosyl homocysteine (SAH). The amounts of SAH formed were determined by LC-ESI-MS (Salyan et al., 2006, Anal Biochem 349:112-117). (B) The effect on GXMT activity of different divalent metals. Protein and buffer solutions were treated with Chelex-100 resin to remove divalent cations prior to initiating the methylation reaction. Metal salts or EDTA were used at a concentration of 1 mM. […] Reaction mixtures were allowed to equilibrate to the specified temperature for 30 min and then the methylation reaction was initiated by the addition of SAMe (15 mM).
Determination of methyltransferase activity using LC-ESI-MS. Glucuronoxylan 4-O-methyltransferase activity was determined using a liquid chromatography-electrospray ionization/mass spectroscopy (LC-ESI-MS) method using selective reaction monitoring (SRM) that measures the formation of S-adenosylhomocysteine from SAM (S17). LC-ESI-MS analyses were performed on a LTQ-XL linear ion trap mass spectrometer (ThermoFisher, Waltham, Mass.) equipped with a Surveyor MS Pump Plus HPLC, a Surveyor Autosampler Plus. Chromatographic separation was as described (Salyan et al., 2006, Anal Biochem 349:112-117). S-adenosylhomocysteine (SAH) eluted at 3.2 min. Thus, the material eluting between 2.5 and 5 min was transferred to the mass spectrometer using an in-line divert/inject valve. The selected reaction monitoring transition used was 385.1>250.1 with a collision energy of 20%. The detection limit was 60.25 nM S-adenosylhomocysteine with a linear response up to 3 μM. […]

For assay [2], the target named is T1, GXMT1. Put plainly: GXMT1 methyltransferase activity monitored by 1H NMR (GlcA methylation of gxmt1-1 glucuronoxylan). In kind it is biochemical. Here is the method: FIG. 12. […] After 48 hours the products formed were treated with endoxylanase and the resulting oligosaccharides were characterized by ^1H NMR spectroscopy. The extent of GlcA methylation was determined by integration of the GlcA (U) and 4-O-methyl GlcA (M) H1 signals (see FIG. 1B).
Determination of Methyltransferase Activity using ^1H-NMR Spectroscopy and LC-ESI-MS. The temperature optimum for GXMT1 activity was between 19-25° C. (FIG. 10C). The transfer of methyl groups to O-4 of GlcA was established by ^1H NMR spectroscopy. Assays were performed at 23° C. in 50 mM potassium bicarbonate, pH 7.5, (250 μL) containing acceptor substrate equivalent to 2.27 mM available GlcA residues, recombinant GXMT1 (10 μM), CoCl2 (2 mM) and 1.5 mM S-adenosyl-L-methionine sulfate p-toluenesulfonate, unless otherwise indicated. The formation of SAH from SAM was determined using LC-ESI-MS (Salyan et al., 2006, Anal Biochem 349:112-117). […] Details of both assays are in Example 2.
Monitoring methyltransferase activity by ^1H-NMR spectroscopy. […] The dry reaction products were dissolved in 0.25 mL D2O and analyzed by ^1H-NMR spectroscopy. Spectra were recorded before and after endoxylanase treatment, when polymeric xylan was used as a substrate.

On to `O=C(O)CN(CCN(CC(=O)O)CC(=O)O)CC(=O)O` [EDTA], for which the “effect on GXMT1 enzyme activity” value at GXMT1 [1] is “completely inhibited”.

As to `Nc1ncnc2c1ncn2[C@@H]1O[C@H](CSCC[C@H](N)C(=O)O)[C@@H](O)[C@H]1O` [SAH, S-adenosyl-L-homocysteine], the “reduction of O-methyl transferase activity” value at GXMT1 [2] (1.5 mM SAH with SAM, 10 μM GXMT1, 48 hours) is “over 50%”. For the same compound, the “effect on in vitro GXMT1 activity” value at GXMT1 [2] (SAH added at the start of the reaction) is listed as “inhibited”.

As for `[Cl-].[Cl-].[Co+2]` [Co^2+], at GXMT1 [1] (metal salts at 1 mM, metal-depleted GXMT1 3.4 μM, 180 min, average), the “enhancement of GXMT1 activity” value was 1,180%.

Take `[Cu+2]` [Cu^2+]: the “effect on GXMT1 enzyme activity” value at GXMT1 [1] is given as “completely inhibited”.

The record behind these values is patent publication US20140331363A1, “PLANTS WITH ALTERED GLUCURONOXYLAN METHYL TRANSFERASE ACTIVITY AND METHODS OF USE” (UNIVERSITY OF GEORGIA RESEARCH FOUNDATION, INC., priority 2011, published 2014).
